Among the data in patent publication US20240174662A1, “SMALL MOLECULE INHIBITORS OF SALT INDUCIBLE KINASES” (Janssen Biotech, Inc., priority 2021, published 2024) are IC50 values, retold here.

As a reminder, the IC50 is the concentration that gives 50% inhibition. A higher IC50 goes with weaker potency.

The target in the assay is SIK2 (Homo sapiens (Human), UniProt Q9H0K1). In words: SIK2 Enzymatic Assay Version 2 (High ATP). In kind it is biochemical. To be noted: 3 mM ATP and 200 μM HDAC5tide final, ADP-Glo Max luminescence. The gist of the method: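 Luminescent ADP-Glo Max read-out: depletion reagent 2 h, then detection reagent 1 h. Before the reaction, compounds were incubated 30 min with enzyme added at 6 nM (twice final concentration), with all steps at room temperature.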
Sequence of SIK2 (Q9H0K1 whole entry, species assumed): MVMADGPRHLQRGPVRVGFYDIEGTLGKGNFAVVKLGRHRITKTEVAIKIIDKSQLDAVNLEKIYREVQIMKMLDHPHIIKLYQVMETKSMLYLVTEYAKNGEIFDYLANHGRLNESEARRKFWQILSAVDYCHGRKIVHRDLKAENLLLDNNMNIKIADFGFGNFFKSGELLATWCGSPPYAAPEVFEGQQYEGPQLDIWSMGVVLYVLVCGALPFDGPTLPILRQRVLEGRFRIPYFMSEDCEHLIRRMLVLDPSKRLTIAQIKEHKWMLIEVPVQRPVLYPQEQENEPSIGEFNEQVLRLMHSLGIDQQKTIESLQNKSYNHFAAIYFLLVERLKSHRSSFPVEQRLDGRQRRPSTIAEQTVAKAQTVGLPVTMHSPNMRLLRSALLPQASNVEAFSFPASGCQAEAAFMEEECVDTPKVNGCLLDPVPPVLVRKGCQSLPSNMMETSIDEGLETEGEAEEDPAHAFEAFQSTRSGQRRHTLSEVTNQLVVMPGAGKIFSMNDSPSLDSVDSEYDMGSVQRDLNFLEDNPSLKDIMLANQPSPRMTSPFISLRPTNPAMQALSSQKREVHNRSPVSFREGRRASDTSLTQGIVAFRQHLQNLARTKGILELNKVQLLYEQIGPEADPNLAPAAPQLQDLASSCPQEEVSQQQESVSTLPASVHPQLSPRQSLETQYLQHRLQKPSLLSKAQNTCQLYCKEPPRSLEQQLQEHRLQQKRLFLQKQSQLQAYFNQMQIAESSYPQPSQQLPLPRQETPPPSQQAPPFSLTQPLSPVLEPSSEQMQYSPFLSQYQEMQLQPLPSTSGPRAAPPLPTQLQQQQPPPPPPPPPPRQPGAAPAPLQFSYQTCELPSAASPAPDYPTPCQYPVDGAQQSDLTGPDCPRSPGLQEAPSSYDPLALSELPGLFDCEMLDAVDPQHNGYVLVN

`CCN1CC[C@@H]1COc1cnn(C)c1-c1ccn2nc(Nc3cc(C)nc(CC4CC4)n3)cc2c1` [Example 179, N-[2-(cyclopropylmethyl)-6-methyl-pyrimidin-4-yl]-5-[4-[[(2R)-1-ethylazetidin-2-yl]methoxy]-2-methyl-pyrazol-3-yl]pyrazolo[1,5-a]pyridin-2-amine]: the IC50 was < 0.847 nM.
For `Cc1cncc(Nc2cc3cc(-c4c(CO[C@@H]5CN(C)C[C@@H]5C)cnn4C)ccn3n2)n1` (stereo in doubt) [Example 379, CIS—*S, *S-5-[4-[(1,4-dimethylpyrrolidin-3-yl)oxymethyl]-2-methyl-pyrazol-3-yl]-N-(6-methylpyrazin-2-yl)pyrazolo[1,5-a]pyridin-2-amine], half-maximal inhibition (IC50) required 2.2 nM.
For `CCN1CC[C@@H]1COc1cnn(C)c1-c1ccn2nc(Nc3cc(C(F)(F)F)nc(C)n3)cc2c1` [Example 162, 5-[4-[[(2R)-1-ethylazetidin-2-yl]methoxy]-2-methyl-pyrazol-3-yl]-N-[2-methyl-6-(trifluoromethyl)pyrimidin-4-yl]pyrazolo[1,5-a]pyridin-2-amine] the value was < 0.847 nM; for `CN1CC[C@H](Oc2cnn(C)c2-c2ccn3nc(Nc4ccnc(C(F)(F)F)n4)cc3c2)C1` [Example 458, 5-[2-methyl-4-[(3S)-1-methylpyrrolidin-3-yl]oxy-pyrazol-3-yl]-N-[2-(trifluoromethyl)pyrimidin-4-yl]pyrazolo[1,5-a]pyridin-2-amine], 167 nM; for `CN1CC[C@H](Oc2cnn(C)c2-c2ccn3nc(Nc4ccncn4)cc3c2)C1` [Example 455, 5-[2-methyl-4-[(3S)-1-methylpyrrolidin-3-yl]oxy-pyrazol-3-yl]-N-pyrimidin-4-yl-pyrazolo[1,5-a]pyridin-2-amine], 137 nM.
As for `CCN1CC[C@@H]1COc1cnn(C)c1-c1ccn2nc(Nc3cncc(C)n3)cc2c1` [Example 20, (R)-5-(4-((1-Ethylazetidin-2-yl)methoxy)-1-methyl-1H-pyrazol-5-yl)-N-(6-methylpyrazin-2-yl)pyrazolo[1,5-a]pyridin-2-amine], the figure is < 0.847 nM.
For the compound `COC1(COc2noc(C)c2-c2ccn3nc(Nc4cc(C)nc(C)n4)cc3c2)CNC1` [Example 30, N-(2,6-dimethylpyrimidin-4-yl)-5-[3-[(3-methoxyazetidin-3-yl)methoxy]-5-methyl-isoxazol-4-yl]pyrazolo[1,5-a]pyridin-2-amine], the IC50 is 5.2 nM.
For `C[C@@H]1NC[C@H]1OCc1cnn(C)c1-c1ccn2nc(NC(=O)C3CC3)cc2c1` [Example 187, N-[5-[2-methyl-4-[[(2S,3R)-2-methylazetidin-3-yl]oxymethyl]pyrazol-3-yl]pyrazolo[1,5-a]pyridin-2-yl]cyclopropanecarboxamide], the IC50 turned out to be 23.5 nM.
As for `Cc1onc(OC[C@H](c2ccccn2)N(C)C)c1-c1ccn2nc(NC(=O)C3CC3)cc2c1` [Example 325, N-[5-[3-[(2S)-2-(dimethylamino)-2-(2-pyridyl)ethoxy]-5-methyl-isoxazol-4-yl]pyrazolo[1,5-a]pyridin-2-yl]cyclopropanecarboxamide], the figure is 63.2 nM.
Take `Cn1ncc(OC[C@H]2CCN2)c1-c1ccn2nc(Nc3cncc(-n4cccn4)n3)cc2c1` [Example 291, 5-[4-[[(2R)-azetidin-2-yl]methoxy]-2-methyl-pyrazol-3-yl]-N-(6-pyrazol-1-ylpyrazin-2-yl)pyrazolo[1,5-a]pyridin-2-amine]: 31.2 nM corresponded to half-maximal inhibition (IC50).
With `Cc1ccc(Nc2cc3cc(-c4c(OC[C@H]5CCN5C)cnn4C)ccn3n2)nn1` [Example 39, 5-[2-methyl-4-[[(2R)-1-methylazetidin-2-yl]methoxy]pyrazol-3-yl]-N-(6-methylpyridazin-3-yl)pyrazolo[1,5-a]pyridin-2-amine], the IC50 turned out to be 3.4 nM.
Compound `Cn1ncc(OC2CCNCC2)c1-c1ccn2nc(NC(=O)C3CC3)cc2c1` [Example 407, N-[5-[2-methyl-4-(4-piperidyloxy)pyrazol-3-yl]pyrazolo[1,5-a]pyridin-2-yl]cyclopropanecarboxamide] gave an IC50 of 86 nM.
For `CN1CC[C@@H]1COc1cnn(C)c1-c1ccn2nc(Nc3ccc4c(n3)CCOC4)cc2c1` [Example 114, N-[5-[2-methyl-4-[[(2R)-1-methylazetidin-2-yl]methoxy]pyrazol-3-yl]pyrazolo[1,5-a]pyridin-2-yl]-7,8-dihydro-5H-pyrano[4,3-b]pyridin-2-amine] the value was 1.1 nM.
In turn, `CN1CC[C@@H](OCc2cnn(C)c2-c2ccn3nc(NC(=O)C4CC4)cc3c2)C1` [Example 362, N-[5-[2-methyl-4-[[(3R)-1-methylpyrrolidin-3-yl]oxymethyl]pyrazol-3-yl]pyrazolo[1,5-a]pyridin-2-yl]cyclopropanecarboxamide] returned an IC50 of 52.8 nM.
For `Cn1ncc(OC[C@H]2CCN2CC(F)(F)F)c1-c1ccn2nc(NC(=O)C3CC3)cc2c1` [Example 315, N-[5-[2-methyl-4-[[(2R)-1-(2,2,2-trifluoroethyl)azetidin-2-yl]methoxy]pyrazol-3-yl]pyrazolo[1,5-a]pyridin-2-yl]cyclopropanecarboxamide] the value was 14.1 nM; for `C[C@H]1CNC[C@H]1Oc1cnn(C)c1-c1ccn2nc(NC(=O)C3CC3)cc2c1` (single isomer, unassigned) [Example 413, (3*S,4*S)—N-[5-[2-methyl-4-(4-methylpyrrolidin-3-yl)oxy-pyrazol-3-yl]pyrazolo[1,5-a]pyridin-2-yl]cyclopropanecarboxamide], 140 nM.
For `CCN1CC[C@@H]1COc1cnn(C)c1-c1ccn2nc(Nc3cnc(OC)cn3)cc2c1` [Example 180, 5-[4-[[(2R)-1-ethylazetidin-2-yl]methoxy]-2-methyl-pyrazol-3-yl]-N-(5-methoxypyrazin-2-yl)pyrazolo[1,5-a]pyridin-2-amine] the value was 2.1 nM.
For `Cc1onc(OC[C@H]2CNCC(C)(C)O2)c1-c1ccn2nc(NC(=O)C3CC3)cc2c1` [Example 86, N-[5-[3-[[(2R)-6,6-dimethylmorpholin-2-yl]methoxy]-5-methyl-isoxazol-4-yl]pyrazolo[1,5-a]pyridin-2-yl]cyclopropanecarboxamide] the value was 1.3 nM.
`CN1CC[C@@H]1COc1cnn(C)c1-c1ccn2nc(N)cc2c1` [Example 503, 5-[2-methyl-4-[[(2R)-1-methylazetidin-2-yl]methoxy]pyrazol-3-yl]pyrazolo[1,5-a]pyridin-2-amine] returned an IC50 of 442 nM.
For `CCN1CC[C@@H]1COc1cnn(C)c1-c1ccn2nc(Nc3cc(C)nc(C(F)F)n3)cc2c1` [Example 103, N-[2-(difluoromethyl)-6-methyl-pyrimidin-4-yl]-5-[4-[[(2R)-1-ethylazetidin-2-yl]methoxy]-2-methyl-pyrazol-3-yl]pyrazolo[1,5-a]pyridin-2-amine] the value was < 0.847 nM; for `CN1C[C@H](c2ccccc2)C[C@@H]1COc1cnn(C)c1-c1ccn2nc(NC(=O)C3CC3)cc2c1` [Example 257, N-[5-[2-methyl-4-[[(2R,4S)-1-methyl-4-phenyl-pyrrolidin-2-yl]methoxy]pyrazol-3-yl]pyrazolo[1,5-a]pyridin-2-yl]cyclopropanecarboxamide], 23.5 nM.
As for `CN1CC[C@@H]1COc1cnn(C)c1-c1ccn2nc(Nc3cc(C(F)(F)F)ncn3)cc2c1` [Example 123, 5-[2-methyl-4-[[(2R)-1-methylazetidin-2-yl]methoxy]pyrazol-3-yl]-N-[6-(trifluoromethyl)pyrimidin-4-yl]pyrazolo[1,5-a]pyridin-2-amine], the figure is 8.4 nM.
For the compound `CN1C[C@@H](C(F)(F)F)[C@@H]1COc1cnn(C)c1-c1ccn2nc(NC(=O)C3CC3)cc2c1` [Example 10, N-[5-[2-methyl-4-[[(2R,3R)-1-methyl-3-(trifluoromethyl)azetidin-2-yl]methoxy]pyrazol-3-yl]pyrazolo[1,5-a]pyridin-2-yl]cyclopropanecarboxamide], the midpoint of inhibition, the IC50, lay at 988 nM.
As for `Cn1ncc(CO[C@@H]2CNCC2(F)F)c1-c1ccn2nc(NC(=O)C3CC3)cc2c1` (single isomer, unassigned) [Example 189, (*R)—N-[5-[4-[(4,4-difluoropyrrolidin-3-yl)oxymethyl]-2-methyl-pyrazol-3-yl]pyrazolo[1,5-a]pyridin-2-yl]cyclopropanecarboxamide], the figure is 12 nM.
As for `CNC1(COc2cnn(C)c2-c2ccn3nc(NC(=O)C4CC4)cc3c2)CC1` [Example 434, N-[5-[2-methyl-4-[[1-(methylamino)cyclopropyl]methoxy]pyrazol-3-yl]pyrazolo[1,5-a]pyridin-2-yl]cyclopropanecarboxamide], the figure is 101 nM.
As for `Cn1ncc(CO[C@@H]2CCNC2)c1-c1ccn2nc(NC(=O)C3CC3)cc2c1` [Example 182, N-[5-[2-methyl-4-[[(3R)-pyrrolidin-3-yl]oxymethyl]pyrazol-3-yl]pyrazolo[1,5-a]pyridin-2-yl]cyclopropanecarboxamide], the figure is 34.4 nM; as for `CCN1CC[C@@H]1COc1cnn(C(F)F)c1-c1ccn2nc(Nc3cc(C)ncn3)cc2c1` [Example 478, 5-[2-(difluoromethyl)-4-[[(2R)-1-ethylazetidin-2-yl]methoxy]pyrazol-3-yl]-N-(6-methylpyrimidin-4-yl)pyrazolo[1,5-a]pyridin-2-amine], 3 nM.
`Cc1onc(OC2CCNCC2)c1-c1ccn2nc(NC(=O)C3CC3)cc2c1` [Example 316, N-[5-[5-methyl-3-(4-piperidyloxy)isoxazol-4-yl]pyrazolo[1,5-a]pyridin-2-yl]cyclopropanecarboxamide]: inhibition was half-maximal at 50.3 nM (IC50).
For `Cc1cnc(Nc2cc3cc(-c4c(CO[C@@H]5CN(C)C[C@H]5C)cnn4C)ccn3n2)cn1` (stereo in doubt) [Example 377, CIS—*R, *R-5-[4-[(1,4-dimethylpyrrolidin-3-yl)oxymethyl]-2-methyl-pyrazol-3-yl]-N-(5-methylpyrazin-2-yl)pyrazolo[1,5-a]pyridin-2-amine] the value was 14.8 nM.
